Measured values from patent US20250129092A1, “COMPOUNDS USEFUL IN MODULATION OF AHR SIGNALLING” (JAGUAHR THERAPEUTICS PTE LTD, priority 2021, published 2025).

Assays:
AhR [1] = target: T1, AhR (Homo sapiens, UniProt P35869); assay: AhR antagonism in human PBMCs - inhibition of IL-22 release; type: cell-based; set-up: endogenous in cells; details: human PBMCs activated with CD3/CD28 agonist mixture, 72 hrs, IL-22 ELISA; average; read-out: hPBMC Inhibition of CD3/CD28 induced IL-22 release: av. pIC50 (converted)
T1 sequence (P35869 11-848): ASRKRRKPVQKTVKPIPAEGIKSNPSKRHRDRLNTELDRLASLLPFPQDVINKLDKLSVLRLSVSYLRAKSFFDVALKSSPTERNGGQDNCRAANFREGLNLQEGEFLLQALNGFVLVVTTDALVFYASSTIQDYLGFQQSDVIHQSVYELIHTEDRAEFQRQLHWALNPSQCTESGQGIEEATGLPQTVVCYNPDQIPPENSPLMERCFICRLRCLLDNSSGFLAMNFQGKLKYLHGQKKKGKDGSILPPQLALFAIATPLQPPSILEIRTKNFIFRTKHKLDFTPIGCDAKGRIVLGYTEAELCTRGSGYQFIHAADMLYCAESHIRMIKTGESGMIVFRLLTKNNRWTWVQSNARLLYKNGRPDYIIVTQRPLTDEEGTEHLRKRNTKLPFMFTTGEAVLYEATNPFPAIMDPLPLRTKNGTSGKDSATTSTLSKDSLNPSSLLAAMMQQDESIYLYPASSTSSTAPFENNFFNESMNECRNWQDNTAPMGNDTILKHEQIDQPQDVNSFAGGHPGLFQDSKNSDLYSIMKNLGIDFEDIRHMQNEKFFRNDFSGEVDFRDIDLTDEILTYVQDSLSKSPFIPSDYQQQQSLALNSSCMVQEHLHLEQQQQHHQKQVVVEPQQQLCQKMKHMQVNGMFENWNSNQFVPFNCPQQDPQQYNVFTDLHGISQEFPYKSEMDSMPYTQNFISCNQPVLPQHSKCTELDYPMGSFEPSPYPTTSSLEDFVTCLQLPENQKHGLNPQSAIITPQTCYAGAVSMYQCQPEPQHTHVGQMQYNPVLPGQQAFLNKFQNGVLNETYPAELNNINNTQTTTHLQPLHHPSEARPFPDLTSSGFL
Source text: In Vitro Assay 3: AhR Antagonism in Human Peripheral Blood Mononuclear Cells (PBMCs)-Inhibition of Interleukin-22 (IL-22) Release.
PBMCs were isolated from human peripheral blood using Lymphoprep™ and diluted to 1×10^6 cells per ml in RPMI media containing […] foetal bovine serum, 1% penicillin-streptomycin and 1% non essential amino acids. PBMCs were subsequently activated with 1p1 per 100,000 cells of a CD3/CD28 agonist mixture (human T Cell TransAct™ (Miltenyi Biotec)) and then plated at 100,000 cells per well in a round bottom 96 well tissue culture plate. One hour after stimulation seven concentrations of each test compound or vehicle (final [DMSO] 0.2%) were added. The plates were then placed in an incubator at 37° C., ≥85% humidity, 5% […] for 72 hrs before the media was removed and stored at −20° C. until cytokine analysis. IL-22 was measured using human IL-22 DuoSet ELISA (R&D systems) according to the manufacturer's instructions.

AhR [2] = target: T1, AhR; assay: AhR antagonism in U937 cells (Promega P450-Glo assay); type: cell-based; set-up: endogenous in cells; host or cells: U937 cells; details: CYP1A1 activity readout (Luciferin-CEE), head names VAF347, average, read-out: U937 Antagonist pIC50-VAF347: av. pIC50 (converted)
Method in brief: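 Human U937 histiocytic lymphoma cells were seeded in Ultraculture serum free media (Lonza) at 100,000 cells per well in round bottom 96 well plates and exposed to seven test compound concentrations for 24 hrs at 37° C., ≥85% humidity, 5% CO2. AhR antagonism was measured as CYP1A1 activity. After removing supernatant, Luciferin-CEE ([Final] 83 μM) was added for 3 hrs. Detection reagent stopped the reaction, and luminescence was read 20 minutes later.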

IC50 (AhR [1])	IC50 (AhR [2])	SMILES
1.62 nM	4.37 nM	COC[C@@H]1COc2c(nc(-c3ccc[nH]c3=O)nc2OCCc2c[nH]c3ccccc23)N1 [Example 48, 3-[(7R)-4-[2-(1H-indol-3-yl)ethoxy]-7-(methoxymethyl)-7,8-dihydro-6H-pyrimido[5,4-b][1,4]oxazin-2-yl]-1H-pyridin-2-one]
6.92 nM	3.39 nM	COC[C@@H]1COc2c(NCCc3c[nH]c4ccccc34)nc(-c3cc(F)cc(F)c3)nc2N1 [Example 49, (7R)-2-(3,5-difluorophenyl)-N-[2-(1H-indol-3-yl)ethyl]-7-(methoxymethyl)-7,8-dihydro-6H-pyrimido[5,4-b][1,4]oxazin-4-amine]
22.4 nM	5.5 nM	Fc1cccc(-c2nc3c(c(NCCc4c[nH]c5ccccc45)n2)OCCN3)c1 [Example 50, 2-(3-fluorophenyl)-N-[2-(1H-indol-3-yl)ethyl]-7,8-dihydro-6H-pyrimido[5,4-b][1,4]oxazin-4-amine]
759 nM	81.3 nM	COC[C@@H]1COc2c(nc(-c3cnc(C)s3)nc2N[C@@H]2CCc3[nH]c4ccccc4c3C2)N1 [Example 53, (7R)-7-(methoxymethyl)-2-(2-methylthiazol-5-yl)-N-[(3R)-2,3,4,9-tetrahydro-1H-carbazol-3-yl]-7,8-dihydro-6H-pyrimido[5,4-b][1,4]oxazin-4-amine]
501 nM	229 nM	Cc1ncc(-c2nc3c(c(N[C@@H]4CCc5[nH]c6ccccc6c5C4)n2)OC[C@@H](CO)N3)s1 [Example 54, [(7R)-2-(2-methylthiazol-5-yl)-4-[[(3R)-2,3,4,9-tetrahydro-1H-carbazol-3-yl]amino]-7,8-dihydro-6H-pyrimido[5,4-b][1,4]oxazin-7-yl]methanol]
18.6 nM	12 nM	COC[C@@H]1COc2c(NCCc3c[nH]c4ccccc34)nc(-c3ccc(F)cc3)nc2N1 [Example 56, (7R)-2-(4-fluorophenyl)-N-[2-(1H-indol-3-yl)ethyl]-7-(methoxymethyl)-7,8-dihydro-6H-pyrimido[5,4-b][1,4]oxazin-4-amine]
2 nM	3.09 nM	COC[C@@H]1COc2c(NCCc3c[nH]c4ccccc34)nc(-c3cccc(F)c3)nc2N1 [Example 57, (7R)-2-(3-fluorophenyl)-N-[2-(1H-indol-3-yl)ethyl]-7-(methoxymethyl)-7,8-dihydro-6H-pyrimido[5,4-b][1,4]oxazin-4-amine]
3.24 nM	3.8 nM	COC[C@@H]1COc2c(NCCc3c[nH]c4ccccc34)nc(-c3cnc(C)s3)nc2N1 [Example 59, (7R)—N-[2-(1H-indol-3-yl)ethyl]-7-(methoxymethyl)-2-(2-methylthiazol-5-yl)-7,8-dihydro-6H-pyrimido[5,4-b][1,4]oxazin-4-amine]
7.41 nM	4.27 nM	Cc1ncc(-c2nc(NCCc3c[nH]c4ccccc34)c3c(n2)N[C@H](CO)CO3)s1 [Example 60, [(7R)-4-[2-(1H-indol-3-yl)ethylamino]-2-(2-methylthiazol-5-yl)-7,8-dihydro-6H-pyrimido[5,4-b][1,4]oxazin-7-yl]methanol]
158 nM	93.3 nM	O=c1[nH]cccc1-c1nc2c(c(N[C@@H]3CCc4[nH]c5ccccc5c4C3)n1)OCCN2 [Example 63, 3-[4-[[(3R)-2,3,4,9-tetrahydro-1H-carbazol-3-yl]amino]-7,8-dihydro-6H-pyrimido[5,4-b][1,4]oxazin-2-yl]-1H-pyridin-2-one]
145 nM	61.7 nM	COc1ncccc1-c1nc2c(c(NCCc3c[nH]c4ccccc34)n1)OCCN2 [Example 64, N-[2-(1H-indol-3-yl)ethyl]-2-(2-methoxy-3-pyridyl)-7,8-dihydro-6H-pyrimido[5,4-b][1,4]oxazin-4-amine]
0.324 nM	1.02 nM	O=c1[nH]cc(F)cc1-c1nc2c(c(NCCc3c[nH]c4ccccc34)n1)OCCN2 [Example 66, 3-(4-((2-(1H-indol-3-yl)ethyl)amino)-7,8-dihydro-6H-pyrimido[5,4-b][1,4]oxazin-2-yl)-5-fluoropyridin-2-ol]
